Key:
MIN6 cells = test: Glucose- and KCl-stimulated insulin secretion in MIN6 cells; format: cell-based, murine; conditions: 200 uM
Experimental: LG=2.8 mM glucose, HG=16.7 mM glucose, KCl=16.7 mM glucose+30 mM KCl. *p<0.05.
Since beta cell failure is a major underlying cause of both GDM and T2D, the effect of increased CMPF on beta cell function was investigated both in vitro and in vivo. Using physiological concentrations of CMPF (20 uM and 200 uM, as observed in our NGT-pregnant and GDM-pregnant samples respectively (FIG. 2)), as well as a vehicle control (EtOH), its effect was studied on glucose-stimulated insulin secretion (GSIS) and insulin secretion in response to direct depolarization using the secretagogue KCl in an immortalized murine beta cell line (MIN6), as well as primary isolated human and murine islets (FIG. 3A). […] Therefore, high physiologically relevant levels of CMPF impair GSIS.

CD1 mice = test: IP injection for 3 or 7 days: monitoring, fasting values, OGTT, ipITT; format: in vivo; conditions: for fasting blood glucose / fasting plasma insulin / glucose tolerance (OGTT) / insulin secretion during OGTT: 14 hr fast
Experimental: CD1 mice were injected IP with either vehicle control (black) or CMPF (white). A) Plasma samples were taken at 10, 30, 60, 120 and 360 minutes post-IP injection and assayed for CMPF. […] Over the 3-day course of IP injections, mice were monitored for body weight (B), random-fed blood glucose (C) and plasma insulin (C). There was no difference in any of these parameters. Following 3 consecutive days of CMPF injections, mice were fasted for 14 hrs and OGTTs were performed.
CD1 mice were injected IP with either vehicle control (black) or CMPF (white). Over the 7-day course of IP injections, mice were monitored for body weight (A), and random-fed blood glucose (B) and plasma insulin (C). […] The lower body weights on day 8 are following a 14-hour fast, immediately prior to the OGTTs. Following 7 consecutive days of CMPF injections, mice were fasted for 14 hrs and OGTTs were performed. […] (n=8 per group, p<0.05).
To investigate the effect of CMPF on glucose homeostasis, (FIG. 8C). […] Therefore, elevated plasma CMPF concentrations cause impaired beta cell function and prevent GSIS in vivo, resulting in glucose intolerance. Chronically elevated CMPF levels may also induce insulin resistance. […]

dispersed mouse islets = test: Mitochondrial membrane potential (rhodamine 123); format: cell-based; conditions: 200 μM
Experimental: Dispersed isolated islets were treated with either vehicle control or 200 μM CMPF for 24 hours prior to loading with rhodamine 123 (25 ug/ml, 10 min) in 2.8 mM glucose imaging buffer. 5 mM NaN3 was added to fully depolarize the MMP (Diao et al., 2008).
Lower total insulin content may be due to beta-cell exhaustion caused by over-stimulation and/or defective insulin production. To determine the mechanism through which CMPF diminishes insulin content, we measured insulin in the media following 24 hr treatment. […] Impaired insulin processing has previously been associated with elevated levels of the mitochondrial protein uncoupling protein 2 (UCP2) (Kashemsant and Chan, 2006). Excess substrate for the electron transport chain leads to the formation of ROS, which can induce UCP2 expression. To first determine if CMPF is metabolized by beta-cells, we measured changes in mitochondrial membrane potential (MMP) in mouse islets acutely treated with CMPF. […] This corresponded to a 2-fold increase in ROS in CMPF-treated islets over controls after 4 and 24 hrs of treatment (FIG. 17c). […] The increase in ROS production caused by CMPF-treatment was inhibited by co-treatment with the antioxidant N-Acetyl-Cysteine (NAC) (FIG. 17f). Importantly, co-treatment with NAC rescued insulin secretion and insulin content to near control levels in CMPF-treated islets (FIG. 17g,h). Therefore, oxidative stress caused by CMPF metabolism impaired GSIS and insulin processing, and is reversible through reducing ROS generation.
Given that CMPF causes hyperinsulinemia during the fed-state in vivo, and exaggerated secretion of insulin from islets under non-stimulatory conditions in vitro, we rationalized that there must be a defect in glucose-sensing and/or secretion of insulin that could not be solely explained by effects on insulin production. […] To confirm changes in mitochondrial function, 24 hr CMPF treated islets were analyzed by microarray. […] When organized based on biological process, the largest differentially expressed cluster encompassed genes involved in metabolism (38%) (FIG. 17c). […]

[1] = system: dispersed CD1 mouse islet cells; test: Immunofluorescent staining of FOXO1 and PDX1 localization; format: cell-based; conditions: CMPF-treated islets
Experimental: The cellular localization of FOXO1 and PDX1 were determined in dispersed CD1 mouse islet cells using immunofluorescence. The presence of the organic anion transporters (OATs) were determined in dispersed human islet cells also using immunofluorescence. Staining was performed as previously described (Diao et al., 2008). Images were acquired using a confocal microscope (Quorum Wave FX Spinning Disc; Perkin Elmer, Waltham M L, USA) and Volocity software (Perkin Elmer).
To determine the mechanism through which CMPF decreases insulin biosynthesis we examined its effect on these key regulators. Under normal conditions, AKT and GSK3β have reciprocal activities. Active pAKT phosphorylates and inactivates GSK3β, preventing phosphorylation of downstream targets (Humphrey et al., 2010). […] FOXO1 is normally sequestered in the cytosol due to phosphorylation by AKT (Kitamura et al., 2005). […] Altered activity of these transcription factors is further confirmed by decreased mRNA levels of key target genes including Inst, transcription factors Pdx1 and Mafa, proinsulin processing enzymes CpE, Pc1 and Pc2, and the glucose transporter Glut2 (Boucher et al., 2006; Kaneto et al. 2008) (FIG. 18a).

islets = test: GSIS with CMPF conjugated to fatty acid-free BSA; format: cell-based; conditions: conjugated for 6 hours prior to addition of islets, N=3
Experimental: CMPF was conjugated to fatty acid free BSA for 6 hours prior to addition of islets for green and blue bars. The same protocol used for the conjugation of oleate was used. Black and white bars indicate addition of CMPF with 0.1% BSA in the media without pre-conjugation. N=3. *P<0.05.

albumin = albumin (Homo sapiens, UniProt P02768); conditions: cited from earlier work
Chain of albumin (P02768 25-609, species assumed): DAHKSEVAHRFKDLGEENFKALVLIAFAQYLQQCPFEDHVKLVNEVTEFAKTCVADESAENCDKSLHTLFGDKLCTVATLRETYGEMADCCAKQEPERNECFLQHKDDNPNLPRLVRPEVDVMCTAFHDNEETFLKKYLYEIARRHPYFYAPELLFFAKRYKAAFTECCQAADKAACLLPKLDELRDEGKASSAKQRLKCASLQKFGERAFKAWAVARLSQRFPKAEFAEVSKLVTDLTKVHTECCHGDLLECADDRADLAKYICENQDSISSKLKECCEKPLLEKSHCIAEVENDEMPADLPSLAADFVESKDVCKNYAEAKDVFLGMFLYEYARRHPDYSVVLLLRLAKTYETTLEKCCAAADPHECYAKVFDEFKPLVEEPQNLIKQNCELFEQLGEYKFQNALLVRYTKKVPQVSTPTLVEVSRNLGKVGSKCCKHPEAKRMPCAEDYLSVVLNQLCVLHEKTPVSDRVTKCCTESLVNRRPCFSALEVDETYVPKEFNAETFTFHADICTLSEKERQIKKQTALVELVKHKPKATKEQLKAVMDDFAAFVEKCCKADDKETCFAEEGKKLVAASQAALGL

[2] = after seven days of IP injection
[3] = after three days of IP injection

## CCCc1oc(CCC(=O)O)c(C(=O)O)c1C [CMPF, 3-carboxy-4-methyl-5-propyl-2-furanpropanoic acid]
MIN6 cells; 4 hour pre-incubation
  KCl-stimulated insulin secretion: significantly impairs
MIN6 cells; 4 hour pre-treatment, vs 20 uM and vehicle
  glucose-stimulated insulin secretion (GSIS): significantly impaired
CD1 mice; 3-day course of IP injections
  body weight: no difference
  random-fed blood glucose: no difference
  random-fed plasma insulin: no difference
CD1 mice; 7-day course of IP injections
  body weight: no difference
  random-fed blood glucose: no difference
CD1 mice; [2]
  fasting blood glucose: significantly higher
  fasting plasma insulin: significantly higher
CD1 mice; [3]
  fasting blood glucose: significantly higher
  fasting plasma insulin: significantly lower
CD1 mice; after 3 days of IP injection
  glucose tolerance (OGTT): impaired glucose tolerance
  insulin secretion during OGTT: significantly impaired insulin secretion
CD1 mice; after 7 days of IP injection
  glucose tolerance (OGTT): significantly impaired glucose tolerance
  insulin secretion during OGTT: significantly impaired insulin secretion
CD1 mice; days 4-7 of injections
  random-fed plasma insulin: significantly elevated
CD1 mice; seven-day treatment
  fed-state glucagon: hyperglucagonemia
CD1 mice; seven-day treatment, vs vehicle
  insulin sensitivity by insulin-tolerance testing (ipITT): no significant difference
Dispersed mouse islets; 24 hrs
  MMP hyperpolarization under high glucose: significantly reduced MMP hyperpolarization
  MMP hyperpolarization under sub-stimulatory glucose: significantly greater hyperpolarization
Dispersed mouse islets; acute
  mitochondrial membrane potential, acute addition: transient membrane hyperpolarization
[1]
  FOXO1 localization: translocated to the nucleus
  PDX1 localization: sequestered outside of the nucleus
islets
  effect of conjugation to fatty acid-free BSA on CMPF-impaired GSIS: no effect
albumin
  albumin binding: highly albumin-bound

— US9726659B2, “CMPF as a biomarker for diabetes and associated methods” (The Governing Council of the University of Toronto, priority 2012, dated 2017)
